Results as given in patent publication US20260248783A1 (ASCLETIS BIOSCIENCE CO., LTD., priority 2021, published 2026).
Structures can show the parent of a compound that is named as a salt.

target: T1, PD-1/PD-L1 (Homo sapiens, UniProt Q9NZQ7); assay: PD-1/PD-L1 Homogeneous Time-Resolved Fluorescence (HTRF) Binding Assay; details: PD-1/PD-L1 HTRF activity; 3 nM PD1, 10 nM PD-L1, 25° C.
T1 construct: Recombinant human PD-L1 protein (19-238) with a Histag at the C-terminus; purchased AcroBiosystems PD1-H5229 (PD-L1); PD1-H5257 (PD-1)
T1 sequence (Q9NZQ7 19-238): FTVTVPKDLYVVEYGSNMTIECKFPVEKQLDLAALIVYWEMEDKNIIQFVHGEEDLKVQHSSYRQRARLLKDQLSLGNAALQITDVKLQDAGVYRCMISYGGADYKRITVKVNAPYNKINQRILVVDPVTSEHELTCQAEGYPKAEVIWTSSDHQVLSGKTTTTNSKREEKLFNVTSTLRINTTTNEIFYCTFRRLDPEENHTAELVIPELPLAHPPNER
Method: Example 107. PD-1/PD-L1 Homogeneous Time-Resolved Fluorescence (HTRF) Binding Assay
The assays were conducted in a standard black 384-well polystyrene plate with a final volume of 20 μL. Inhibitors were first serially diluted in DMSO and then added to the plate wells before the addition of other reaction components. The final concentration of DMSO in the assay was 1%. The assays were carried out at 25° C. in the PBS buffer (pH 7.4) with 0.05% Tween-20 and 0.1% BSA. Recombinant human PD-L1 protein (19-238) with a Histag at the C-terminus was purchased from AcroBiosystems (PD1-H5229). Recombinant human PD-1 protein (25-167) with Fe tag at the C-terminus was also purchased from AcroBiosystems (PD1-H5257). PD-L1 and PD-1 proteins were diluted in the assay buffer and 10 μL was added to the plate well. Plates were centrifuged and proteins were preincubated with inhibitors for 40 minutes. The incubation was followed by the addition of 10 μL of HTRF detection buffer supplemented with Europium cryptate-labeled anti-human IgG (PerkinElmer-AD0212) specific for Fe and anti-His antibody conjugated to SureLight®—Allophycocyanin (APC, PerkinElmer-AD0059H). After centrifugation, the plate was incubated at 25° C. for 60 min. before reading on a PHERAstar FS plate reader (665 nm/620 nm ratio). Final concentrations in the assay were […], 10 nM PD-L1, 1 nM europium anti-human IgG and 20 nM anti-His-Allophycocyanin. IC50 determination was performed by fitting the curve of percent control activity versus the log of the inhibitor concentration.

SMILES	IC50 [nM]
O=C(O)CCn1cnn2cc(-c3cccc(-c4cccc(-c5cc6c(=O)n(CCC(=O)O)cnn6c5)c4Cl)c3Cl)cc2c1=O [Compound 24, 3,3′-((2,2′-dichloro-[1,1′-biphenyl]-3,3′-diyl)bis(4-oxopyrrolo[2,1-f][1,2,4]triazine-6,3(4H)-diyl))dipropionic acid]	≥ 100
O=c1c2cc(-c3cccc(-c4cccc(-c5cc6c(=O)n(CCn7nccn7)cnn6c5)c4Cl)c3Cl)cn2ncn1CCn1nccn1 [Compound 25, 6,6′-(2,2′-dichloro-[1,1′-biphenyl]-3,3′-diyl)bis(3-(2-(2H-1,2,3-triazol-2-yl)ethyl)pyrrolo[2,1-f][1,2,4]triazin-4(3H)-one)]	10 to 100
CN1CCN(CCn2cnn3cc(-c4cccc(-c5cccc(-c6cc7c(=O)n(CCN8CCN(C)CC8)cnn7c6)c5Cl)c4Cl)cc3c2=O)CC1 [Compound 26, 6,6′-(2,2′-dichloro-[1,1′-biphenyl]-3,3′-diyl)bis(3-(2-(4-methylpiperazin-1-yl)ethyl)pyrrolo[2,1-f][1,2,4]triazin-4(3H)-one)]	≥ 100
O=C1CCC(Cn2cnn3cc(-c4cccc(-c5cccc(-c6cc7c(=O)n(CC8CCC(=O)O8)cnn7c6)c5Cl)c4Cl)cc3c2=O)O1 (centres unmarked) [Compound 27, 6,6′-(2,2′-dichloro-[1,1′-biphenyl]-3,3′-diyl)bis(3-((5-oxotetrahydrofuran-2-yl)methyl)pyrrolo[2,1-f][1,2,4]triazin-4(3H)-one)]	≥ 100
O=C(O)CCC(O)Cn1cnn2cc(-c3cccc(-c4cccc(-c5cc6c(=O)n(CC(O)CCC(=O)O)cnn6c5)c4Cl)c3Cl)cc2c1=O (centres unmarked) [Compound 28, 5,5′-((2,2′-dichloro-[1,1′-biphenyl]-3,3′-diyl)bis(4-oxopyrrolo[2,1-f][1,2,4]triazine-6,3(4H)-diyl))bis(4-hydroxypentanoic acid)]	≥ 100
Cc1cn2nc(-c3cccc(-c4cccc(-c5cc6c(=O)n(C[C@@H]7CCC(=O)N7)c(C)cn6n5)c4Cl)c3Cl)cc2c(=O)n1C[C@@H]1CCC(=O)N1 [Compound 29]	< 10
Cc1cn2cc(-c3cccc(-c4cccc(-c5cc6c(=O)n(C[C@@H]7CCC(=O)N7)c(C)cn6c5)c4Cl)c3Cl)cc2c(=O)n1C[C@@H]1CCC(=O)N1 [Compound 30, 7,7′-(2,2′-dichloro-[1,1′-biphenyl]-3,3′-diyl)bis(3-methyl-2-(((S)-5-oxopyrrolidin-2-yl)methyl)pyrrolo[1,2-a]pyrazin-1(2H)-one)]	< 10
O=C1CC[C@@H](Cn2c(C3CC3)cn3cc(-c4cccc(-c5cccc(-c6cc7c(=O)n(C[C@@H]8CCC(=O)N8)c(C8CC8)cn7c6)c5Cl)c4Cl)cc3c2=O)N1 [Compound 31, 7,7′-(2,2′-dichloro-[1,1′-biphenyl]-3,3′-diyl)bis(3-cyclopropyl-2-(((S)-5-oxopyrrolidin-2-yl)methyl)pyrrolo[1,2-a]pyrazin-1(2H)-one)]	10 to 100
O=C1CC[C@@H](Cn2c(C3CC3)cn3nc(-c4cccc(-c5cccc(-c6cc7c(=O)n(C[C@@H]8CCC(=O)N8)c(C8CC8)cn7n6)c5Cl)c4Cl)cc3c2=O)N1 [Compound 32, 2,2′-(2,2′-dichloro-[1,1′-biphenyl]-3,3′-diyl)bis(6-cyclopropyl-5-(((S)-5-oxopyrrolidin-2-yl)methyl)pyrazolo[1,5-a]pyrazin-4(5H)-one)]	10 to 100
CCc1cn2nc(-c3cccc(-c4cccc(-c5cc6c(=O)n(C[C@@H]7CCC(=O)N7)c(CC)cn6n5)c4Cl)c3Cl)cc2c(=O)n1C[C@@H]1CCC(=O)N1 [Compound 33, 2,2′-(2,2′-dichloro-[1,1′-biphenyl]-3,3′-diyl)bis(6-ethyl-5-(((S)-5-oxopyrrolidin-2-yl)methyl)pyrazolo[1,5-a]pyrazin-4(5H)-one)]	10 to 100
O=C1CC[C@@H](Cn2c(C3CC3)nn3cc(-c4cccc(-c5cccc(-c6cc7c(=O)n(C[C@@H]8CCC(=O)N8)c(C8CC8)nn7c6)c5Cl)c4Cl)cc3c2=O)N1 [Compound 34, 6,6′-(2,2′-dichloro-[1,1′-biphenyl]-3,3′-diyl)bis(2-cyclopropyl-3-(((S)-5-oxopyrrolidin-2-yl)methyl)pyrrolo[2,1-f][1,2,4]triazin-4(3H)-one)]	10 to 100
Cc1nn2cc(-c3cccc(-c4cccc(-c5cc6c(=O)n(C[C@@H]7CCC(=O)N7)c(C)nn6c5)c4Cl)c3Cl)cc2c(=O)n1C[C@@H]1CCC(=O)N1 [Compound 35, 6,6′-(2,2′-dichloro-[1,1′-biphenyl]-3,3′-diyl)bis(2-methyl-3-(((S)-5-oxopyrrolidin-2-yl)methyl)pyrrolo[2,1-f][1,2,4]triazin-4(3H)-one)]	< 10
Cc1cn2nc(-c3cccc(-c4cccc(-c5cc6c(=O)n(C[C@H]7CCCN7)c(C)cn6n5)c4Cl)c3Cl)cc2c(=O)n1C[C@H]1CCCN1 [Compound 37, 2,2′-(2,2′-dichloro-[1,1′-biphenyl]-3,3′-diyl)bis(6-methyl-5-(((R)-pyrrolidin-2-yl)methyl)pyrazolo[1,5-a]pyrazin-4(5H)-one) dihydrochloride]	10 to 100
Cc1cn2cc(-c3cccc(-c4cccc(-c5cc6c(=O)n(C[C@@H]7CCCN7)c(C)cn6c5)c4Cl)c3Cl)cc2c(=O)n1C[C@@H]1CCCN1 [Compound 38, 7,7′-(2,2′-dichloro-[1,1′-biphenyl]-3,3′-diyl)bis(3-methyl-2-(((S)-pyrrolidin-2-yl)methyl)pyrrolo[1,2-a]pyrazin-1(2H)-one)]	10 to 100
Cc1cn2cc(-c3cccc(-c4cccc(-c5cc6c(=O)n(C[C@H]7CCCN7)c(C)cn6c5)c4Cl)c3Cl)cc2c(=O)n1C[C@H]1CCCN1 [Compound 39, 7,7′-(2,2′-dichloro-[1,1′-biphenyl]-3,3′-diyl)bis(3-methyl-2-(((R)-pyrrolidin-2-yl)methyl)pyrrolo[1,2-a]pyrazin-1(2H)-one)]	10 to 100
Cn1c(CN2CC[C@H](C(=O)O)C2)cn2nc(-c3cccc(-c4cccc(-c5cc6c(=O)n(C)c(CN7CC[C@H](C(=O)O)C7)cn6n5)c4Cl)c3Cl)cc2c1=O [Compound 41, (3S,3'S)-1,1′-(((2,2′-dichloro-[1,1′-biphenyl]-3,3′-diyl)bis(5-methyl-4-oxo-4,5-dihydropyrazolo[1,5-a]pyrazine-2,6-diyl))bis(methylene))bis(pyrrolidine-3-carboxylic acid)]	10 to 100
Cn1c(CNCCO)cn2nc(-c3cccc(-c4cccc(-c5cc6c(=O)n(C)c(CNCCO)cn6n5)c4Cl)c3Cl)cc2c1=O [Compound 42, 2,2′-(2,2′-dichloro-[1,1′-biphenyl]-3,3′-diyl)bis(6-(((2-hydroxyethyl)amino)methyl)-5-methylpyrazolo[1,5-a]pyrazin-4(5H)-one)]	< 10
CC(=O)NCCNCc1cn2cc(-c3cccc(-c4cccc(-c5cc6c(=O)n(C)c(CNCCNC(C)=O)cn6c5)c4Cl)c3Cl)cc2c(=O)n1C [Compound 44, N,N′-(((((2,2′-dichloro-[1,1′-biphenyl]-3,3′-diyl)bis(2-methyl-1-oxo-1,2-dihydropyrrolo[1,2-a]pyrazine-7,3-diyl))bis(methylene))bis(azanediyl))bis(ethane-2,1-diyl))diacetamide]	10 to 100
Cn1c(CNCCO)cn2cc(-c3cccc(-c4cccc(-c5cc6c(=O)n(C)c(CNCCO)cn6c5)c4Cl)c3Cl)cc2c1=O [Compound 45, 7,7′-(2,2′-dichloro-[1,1′-biphenyl]-3,3′-diyl)bis(3-(((2-hydroxyethyl)amino)methyl)-2-methylpyrrolo[1,2-a]pyrazin-1(2H)-one)]	< 10
Cn1c(CN2CC[C@H](O)C2)cn2cc(-c3cccc(-c4cccc(-c5cc6c(=O)n(C)c(CN7CC[C@H](O)C7)cn6c5)c4Cl)c3Cl)cc2c1=O [Compound 46, 7,7′-(2,2′-dichloro-[1,1′-biphenyl]-3,3′-diyl)bis(3-(((S)-3-hydroxypyrrolidin-1-yl)methyl)-2-methylpyrrolo[1,2-a]pyrazin-1(2H)-one)]	10 to 100
Cc1cn2cc(-c3cccc(-c4cccc(-c5cc6c(=O)n(CCN7CC[C@H](O)C7)c(C)cn6c5)c4Cl)c3Cl)cc2c(=O)n1CCN1CC[C@H](O)C1 [Compound 48, 7,7′-(2,2′-dichloro-[1,1′-biphenyl]-3,3′-diyl)bis(2-(2-((S)-3-hydroxypyrrolidin-1-yl)ethyl)-3-methylpyrrolo[1,2-a]pyrazin-1(2H)-one)]	10 to 100
Cc1cn2cc(-c3cccc(-c4cccc(-c5cc6c(=O)n(CCN7C[C@@H](O)C[C@H]7C(=O)O)c(C)cn6c5)c4Cl)c3Cl)cc2c(=O)n1CCN1C[C@@H](O)C[C@H]1C(=O)O [Compound 50, (2S,2'S,4S,4'S)-1,1′-(((2,2′-dichloro-[1,1′-biphenyl]-3,3′-diyl)bis(3-methyl-1-oxopyrrolo[1,2-a]pyrazine-7,2(1H)-diyl))bis(ethane-2,1-diyl))bis(4-hydroxypyrrolidine-2-carboxylic acid)]	10 to 100
CC(=O)NCCNCCn1c(C)cn2cc(-c3cccc(-c4cccc(-c5cc6c(=O)n(CCNCCNC(C)=O)c(C)cn6c5)c4Cl)c3Cl)cc2c1=O [Compound 54, N,N′-(((((2,2′-dichloro-[1,1′-biphenyl]-3,3′-diyl)bis(3-methyl-1-oxopyrrolo[1,2-a]pyrazine-7,2(1H)-diyl))bis(ethane-2,1-diyl))bis(azanediyl))bis(ethane-2,1-diyl))diacetamide]	< 10
